According to ChEMBL document CHEMBL3880392, “Tropane-derivatives, their preparation and use” (2002):

Tests used:
Type in all cases: subcellular
[1] = molecular target: Sodium-dependent serotonin transporter (Rattus norvegicus) (UniProt P31652); assay: Inhibition of re-uptake of [3H]5-hydroxytryptamine at SERT in Wistar rat cortical synaptosomes by liquid scintillation counting relative to untreated control; conditions: concentration not given here
[2] = molecular target: Sodium-dependent dopamine transporter (Rattus norvegicus) (UniProt P23977); assay: Inhibition of re-uptake of [3H]dopamine at DAT in Wistar rat corpus striatum synaptosomes by liquid scintillation counting relative to untreated control; conditions: concentration not given here
[3] = molecular target: Transporter (Rattus norvegicus) (UniProt F1LNR9); assay: Inhibition of re-uptake of [3H]noradrenaline at NET in Wistar rat hippocampal synaptosomes by liquid scintillation counting relative to untreated control; conditions: Hippocampus, concentration not given here

Measured: inhibition

Chain of Transporter (Rattus norvegicus) (F1LNR9 as listed by the source): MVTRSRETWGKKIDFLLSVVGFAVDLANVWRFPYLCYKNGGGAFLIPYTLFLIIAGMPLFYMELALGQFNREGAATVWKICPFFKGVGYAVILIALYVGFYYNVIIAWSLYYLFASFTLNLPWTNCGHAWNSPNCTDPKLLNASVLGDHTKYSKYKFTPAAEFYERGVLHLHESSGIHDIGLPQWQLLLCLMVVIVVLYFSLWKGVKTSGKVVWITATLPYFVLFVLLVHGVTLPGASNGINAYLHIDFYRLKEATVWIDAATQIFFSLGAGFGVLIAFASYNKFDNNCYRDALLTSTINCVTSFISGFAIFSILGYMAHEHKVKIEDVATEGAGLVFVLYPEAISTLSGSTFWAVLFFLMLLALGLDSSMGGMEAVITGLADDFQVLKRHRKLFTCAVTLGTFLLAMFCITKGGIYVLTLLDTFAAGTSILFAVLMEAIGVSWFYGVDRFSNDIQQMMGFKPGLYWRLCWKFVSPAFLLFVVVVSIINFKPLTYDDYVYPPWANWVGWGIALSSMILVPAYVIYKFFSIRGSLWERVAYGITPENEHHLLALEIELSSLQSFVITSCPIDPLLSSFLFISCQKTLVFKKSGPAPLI
Chain of Sodium-dependent serotonin transporter (Rattus norvegicus) (P31652 whole entry): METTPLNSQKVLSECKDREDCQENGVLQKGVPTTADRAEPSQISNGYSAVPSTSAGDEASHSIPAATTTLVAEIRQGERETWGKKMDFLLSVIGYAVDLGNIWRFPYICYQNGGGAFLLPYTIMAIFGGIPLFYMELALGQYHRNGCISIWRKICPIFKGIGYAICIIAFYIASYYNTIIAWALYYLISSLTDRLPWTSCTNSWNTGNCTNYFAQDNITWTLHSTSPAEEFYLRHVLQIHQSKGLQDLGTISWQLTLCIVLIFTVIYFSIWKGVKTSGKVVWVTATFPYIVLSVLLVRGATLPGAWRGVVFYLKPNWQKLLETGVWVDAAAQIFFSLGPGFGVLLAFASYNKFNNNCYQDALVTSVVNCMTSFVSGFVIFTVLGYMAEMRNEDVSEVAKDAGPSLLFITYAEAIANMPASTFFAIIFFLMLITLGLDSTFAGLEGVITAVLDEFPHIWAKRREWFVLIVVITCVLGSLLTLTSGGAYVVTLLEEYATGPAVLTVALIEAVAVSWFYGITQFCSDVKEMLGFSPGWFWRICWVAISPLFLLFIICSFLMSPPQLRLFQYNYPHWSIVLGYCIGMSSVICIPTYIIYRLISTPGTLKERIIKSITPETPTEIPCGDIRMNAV
Chain of Sodium-dependent dopamine transporter (Rattus norvegicus) (P23977 whole entry): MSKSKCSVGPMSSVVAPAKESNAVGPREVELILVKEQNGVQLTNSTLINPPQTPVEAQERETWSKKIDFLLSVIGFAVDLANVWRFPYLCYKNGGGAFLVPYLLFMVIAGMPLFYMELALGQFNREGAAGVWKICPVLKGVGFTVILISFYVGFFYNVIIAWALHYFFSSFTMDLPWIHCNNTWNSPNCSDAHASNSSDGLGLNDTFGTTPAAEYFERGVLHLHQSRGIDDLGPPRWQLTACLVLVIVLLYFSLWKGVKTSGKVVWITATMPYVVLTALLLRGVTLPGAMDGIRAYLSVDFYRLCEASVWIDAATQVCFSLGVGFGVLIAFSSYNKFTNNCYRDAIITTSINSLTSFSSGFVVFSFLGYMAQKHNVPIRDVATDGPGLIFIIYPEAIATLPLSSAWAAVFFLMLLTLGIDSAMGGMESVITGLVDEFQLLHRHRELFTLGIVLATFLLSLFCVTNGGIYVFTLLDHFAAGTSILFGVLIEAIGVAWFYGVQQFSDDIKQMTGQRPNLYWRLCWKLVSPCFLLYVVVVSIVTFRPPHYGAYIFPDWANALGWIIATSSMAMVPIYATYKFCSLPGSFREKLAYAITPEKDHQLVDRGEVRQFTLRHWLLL

CCOC[C@@H]1[C@@H](c2ccc(Cl)c(Cl)c2)C[C@@H]2CC[C@H]1N2C
25 to 75%: all assays above

COC[C@@H]1[C@@H](c2ccc(Cl)c(Cl)c2)C[C@@H]2CC[C@H]1N2C
25 to 75%: all assays above

CN1[C@H]2CC[C@@H]1[C@H](CSc1ccccc1)[C@@H](c1ccc(Cl)c(Cl)c1)C2
25 to 75%: all assays above
